Experimental findings from patent US20250228824A1, “COMPOSITIONS AND METHODS FOR INHIBITION OF ITO AS TREATMENT FOR THE J WAVE SYNDROMES AND HYPOTHERMIA” (Lankenau Institute for Medical Research, priority 2021, published 2025) are described below.

The subject of assay [1] is canine right ventricular epicardial myocytes. Put plainly: Action potential recording (current clamp) in canine RV epicardial myocytes. Type of assay: cell-based. The following applies: 10 μM. The protocol:
(§1) Single myocytes were isolated from coronary-perfused canine right or left ventricular wedge preparations via enzymatic dissociation. Briefly, the wedge preparations were coronary perfused with nominally Ca^+2-free Tyrode's solution for a period of 15 min. They were then subjected to enzymatic digestion in nominally Ca^2+-free solution supplemented with 0.6 mg/ml collagenase (type II; Worthington) and 0.075 mg/ml protease (type XIV; Sigma) for 25-35 min. The wedge preparation was then perfused for 15 min with a taurine buffer solution containing (in mM): 108 NaCl, 10 HEPES, 11 D-glucose, 4 KCl, 1.2 MgSO4, 1.2 NaH2PO4, 50 taurine and 0.025 CaCl2. pH was adjusted to 7.4 using NaOH. After perfusion, thin slices of tissue were cut from the epicardial surface to obtain single epicardial cells as previously described.^6
Ito and APs were measured in isolated RV or LV myocytes. APs were measured in the current-clamp mode in the whole-cell configuration. APs were initiated using intracellular current injection and recorded continuously by means of Clampex software (Axon Instruments/Molecular Devices) at a sampling frequency of […]. Ito was measured using the Axopatch 200B-2 amplifier in V-Clamp mode.

Assay [2] has as its system CaV1.2 (ICa). Briefly: Whole-cell patch clamp of ICa in canine ventricular myocytes. The following applies: 10 μM; at 0 mV; control −5.13+0.77; shift not statistically significant. It is filed as cell-based. The protocol: as §1
ICa was measured in canine ventricular myocytes at 37° C. ICa was elicited by application of 300 ms steps from −50 to +40 mV. Extended protocols were avoided to prevent current rundown. Internal solution contained (in mM): 120 CsCl, 1 MgCl2, 10 EGTA, 5 Mg-ATP, 10 HEPES, 5 CaCl2. pH was adjusted to 7.2 with CsOH. External solution contained (in mM): 140 NaCl, 10 HEPES, 10 D-glucose, 4 KCl, 1 MgCl2, 2 CaCl2, 2 4-AP and 0.1 BaCl2.

The subject of assay [3] is coronary-perfused canine right (RV) and left (LV) ventricular wedge models of JWS. Briefly: Coronary-perfused ventricular wedge models of the J wave syndromes (NS5806 alone or with verapamil). More on the design: QT interval / T wave amplitude / Epi (APD50) / Epi (APD90): unit not given here. The protocol:
Ten hearts from purpose-bred adult male mongrel dogs (20-22 kg) were acquired from Covance (Denver, PA) and another 10 hearts from purpose-bred adult male Beagle dogs (10-16 kg) were obtained from Envigo (Denver, PA). Dogs were sedated with ketamine (10 mg/kg, IM) and xylazine 2 (mg/kg, IM). Prior to euthanasia (Euthasol solution: pentobarbital sodium and phenytoin sodium; 0.22 ml/kg, IV), and heparin (human pharmaceutical grade, 1,000 U/kg, IV) were administered 3-4 min before isolation of the hearts via a left thoracotomy. Retrograde aortic perfusion of the hearts with ice-cold cardioplegic solution (modified K-H solution; 16 mM KCl) was immediately performed to rinse the coronary vasculature of blood. The hearts were then placed in a sealed container containing ice-cold cardioplegic solution and transported to our institution via private courier in an insulated package filled with icepacks.
Transmural wedges were dissected from the base of the RV and LV. During the cannulation procedure, preparations were initially arterially perfused with cardioplegic solution. Next, the wedge preparations were placed in a tissue bath and perfused with a modified Krebs-Henseleit solution (K—H) bubbled with 95% O2/5% CO2 warmed to 37° C. The composition of K—H was (in mM): 118 NaCl, 4 KCl, 2 CaCl2, 1.2 MgSO4, 24 NaHCO3, 1.2 NaH2PO4, 2 Na Pyruvate and 10 D-Glucose. The perfusate was delivered at a constant pressure (45-50 mmHg). A transmural pseudo-ECG (ECG) was recorded using two Ag/AgCl half cells placed at ˜1 cm from the Epi (+) and Endo (−) surfaces along the same axis as the transmembrane action potential (AP) recordings. APs were simultaneously recorded from the immediate sub-Epi and M cell region (˜2-3 mm from the Endo surface) using floating glass microelectrodes. Pacing was applied to the Endo surface using bipolar silver electrodes insulated except at the tips (Basic Cycle Lengths [BCLs]: 500-2,000 ms). A detailed description of the arterially-perfused ventricular wedge preparation has been previously published.^5 ECG and AP signals were digitized and analyzed using Spike 2 for Windows (Cambridge Electronic Design, Cambridge, UK).
We used the Ito-agonist NS5806 (5-10 μM) alone or with the calcium-channel blocker verapamil (2.5 μM) to pharmacologically mimic the effects of the ion channel genetic defects underlying ERS and BrS. These provocative agents were added to the coronary perfusate in increasing concentrations until the characteristic ECG phenotypes were unmasked, including phase 2 reentry (P2R), closely coupled premature beats (CCPBs) and/or pVT/VF. AR-787 was added to the perfusate to test its ability to suppress or prevent arrhythmogenesis.

[4] abbreviates: AR-787 10 μM following NS5806 5-10 μM, 3 LV wedges, BCL 800 msec.

With `Cc1nc(-n2cccc2)sc1C(=O)N=c1[nH]c2ccccc2[nH]1` [AR-787, N-(1H-benzimidazol-2-yl)-4-methyl-2-pyrrol-1-yl-thiazole-5-carboxamide], the “Action potential duration (APD)” value in assay [1] was “tendency to abbreviate but this effect was not statistically significant”. Besides, the “effect on AP notch” value in assay [1] (0.5 Hz) is “significantly suppressed the AP notch”. The ICa peak density in assay [2] is −6.95+1.88 pA/pF. Further, in assay [3] (AR-787 10 μM after NS5806 5-10 μM), the “effect on NS5806-induced J wave syndrome phenotype” value was “reversed these effects induced by NS5806”. Besides, in assay [3] (setting [4]), the “Epi (APD50)” value came to 173.9 ± 7.8, the “Epi (APD90)” value amounted to 209.0 ± 8.1, the J wave amplitude was determined as 8.7 ± 5.7 and the “M (APD50)” value turned out to be 179.0 ± 11.4. In addition, in assay [3] (setting [4]), the “M (APD90)” value was 235.0 ± 11.1, the “Ph1 mag (% Ph0)” value turned out to be 25.4 ± 4.9 % Ph0, the QT interval is 254.3 ± 10.0 and the T wave amplitude was determined as 19.0 ± 1.8. In addition, the “manifestation of AP notch and ECG J wave” value in assay [3] (AR-787 1, 10 and 50 μM after NS5806 10 μM, LV and RV wedges) was “concentration-dependent diminution in the manifestation of the AP notch and associated ECG J wave”. The QT interval result in assay [3] (AR-787 1, 10 or 50 μM, NS5806 5-10 μM, five wedges) is “unaffected”. In assay [3] (AR-787 1, 10 or 50 μM, NS5806 5-10 μM, five wedges (4 LV and 1 RV)), the “effect on NS5806-augmented Epi Ph1 magnitude and J wave amplitude” value is recorded as “readily reversed the effect of NS5806”. Also, the “ECG and arrhythmic manifestations (extrasystole, polymorphic VT) in ERS model” value in assay [3] (LV wedge, NS5806 10 μM and verapamil 2.5 μM, AR-787 10 μM, 30 min) is “reduced Phase 1 magnitude, restored the AP dome and totally suppressed all arrhythmic activity”. Also, the “restoration of AP dome and suppression of Phase 2 reentry extrasystoles” value in assay [3] (RV wedge, 40 min NS5806 10 μM, AR-787 50 μM but not 10 μM) was “effective in fully restoring the AP dome and in totally suppressing this arrhythmic activity”.
